# Data published in patent publication US10294202B2, “Pyrrolidinones as herbicides” (FMC Corporation, priority 2013, dated 2019).
# What was measured:
# barnyardgrass = test: Test A pre-/postemergence herbicide test; type: in vivo, Echinochloa crus-galli
# Method in brief: (§1)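 Seeds in loam–sand blend received preemergence directed soil spray; separately, plants 2–10 cm at one- to two-leaf stage received postemergence spray, both with test chemicals in non-phytotoxic solvent with surfactant. After ~10 days in greenhouse, injury rated visually against untreated controls, 0 (no effect) to 100 (complete control).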
# pigweed = test: Test A pre-/postemergence herbicide test; type: in vivo, Amaranthus retroflexus
# Method in brief: as §1
# corn [1] = test: Test A pre-/postemergence herbicide test; type: in vivo, Zea mays; details: Postemergence
# Method in brief: as §1
# ducksalad = test: Test B flooded paddy test; type: in vivo, Heteranthera limosa; details: 500 g ai/ha, Flood; scale of 0 to 100 where 0 is no effect and 100 is complete control
# Method in brief: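 Treatment was made at the 2-leaf stage by dosing the standing floodwater, kept 3 cm above soil level for the whole test. Greenhouse exposure lasted 13 to 15 days. Response is a visual percent rating relative to controls, where a dash indicates no test result.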
# blackgrass = test: Test C pre-/postemergence herbicide test; type: in vivo, Alopecurus myosuroides
# Method in brief: (§2)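 Pre-emergence: seeds sown in loam/sand blend and treated with compound in surfactant-containing solvent. Post-emergence: plants at 2–18 cm (1- to 4-leaf stage) in peat-based medium sprayed with the same formulation. Visual rating versus controls after 13–15 days in greenhouse, scale 0 (no effect) to 100 (complete control).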
# corn [2] = test: Test C pre-/postemergence herbicide test; type: in vivo, Zea mays
# Method in brief: as §2
# lambsquarters = test: Test C pre-/postemergence herbicide test; type: in vivo, Chenopodium album
# Method in brief: as §2
# morningglory = test: Test C pre-/postemergence herbicide test; type: in vivo, Ipomoea coccinea
# Method in brief: as §2
# nutsedge, yellow = test: Test C pre-/postemergence herbicide test; type: in vivo, Cyperus esculentus
# Method in brief: as §2
# soybean = test: Test C pre-/postemergence herbicide test; type: in vivo, Glycine max
# Method in brief: as §2
# oilseed rape = test: Test C pre-/postemergence herbicide test; type: in vivo, Brassica napus
# Method in brief: as §2
# [3] = Postemergence, 125 g ai/ha, visual rating on 0 to 100 scale (0 no effect, 100 complete control), approx. 10 days
# [4] = Postemergence, 500 g ai/ha, 0 to 100 scale (0 no effect, 100 complete control)
# [5] = Preemergence, 125 g ai/ha, 0 to 100 scale where 0 is no effect and 100 is complete control
# [6] = Preemergence, 500 g ai/ha, visual rating on 0 to 100 scale (0 no effect, 100 complete control)
# [7] = 125 g ai/ha, visual rating on 0 to 100 scale (0 no effect, 100 complete control), approx. 10 days
# [8] = 500 g ai/ha, 0 to 100 scale (0 no effect, 100 complete control)
# [9] = Postemergence, 31 g ai/ha, scale 0 to 100 (0 no effect, 100 complete control)
# [10] = Postemergence, 62 g ai/ha, scale 0 (no effect) to 100 (complete control)
# [11] = Postemergence, 125 g ai/ha, scale 0 to 100 (0 no effect, 100 complete control)
# [12] = Postemergence, 250 g ai/ha, scale 0 to 100 (0 no effect, 100 complete control)
# [13] = Preemergence, 31 g ai/ha, scale 0 to 100, 0 is no effect and 100 is complete control
# [14] = Preemergence, 62 g ai/ha, scale 0 to 100 (0 no effect, 100 complete control)
# [15] = Preemergence, 125 g ai/ha, scale 0 to 100
smiles,measurement,setting,value
O=C1NCC(c2cccc(OC(F)F)c2)C1C(=O)Nc1cccc(F)c1F (stereo not shown) [Compound 324],"Plant response rating, Barnyardgrass",barnyardgrass; [3],90
same,"Plant response rating, Barnyardgrass",barnyardgrass; [4],90
same,"Plant response rating, Barnyardgrass",barnyardgrass; [5],90
same,Barnyardgrass plant response rating,barnyardgrass; [6],90
same,"Plant response rating, Pigweed",pigweed; [3],40
same,"Plant response rating, Pigweed",pigweed; [4],70
same,"Plant response rating, Pigweed",pigweed; [5],30
same,Pigweed plant response rating,pigweed; [6],60
same,"Plant response rating, Corn",corn [1]; [7],50
same,"Plant response rating, Corn",corn [1]; [8],90
same,"Plant response rating, Ducksalad",ducksalad,100
same,"Plant response rating, Blackgrass",blackgrass; [9],0
same,"Plant response rating, Blackgrass",blackgrass; [10],0
same,"Plant response rating, Blackgrass",blackgrass; [11],0
same,"Plant response rating, Blackgrass",blackgrass; [12],0
same,Blackgrass plant response rating,blackgrass; [13],100
same,Blackgrass plant response rating,blackgrass; [14],30
same,"Plant response rating, Blackgrass",blackgrass; [15],70
same,"Plant response rating (scale of 0 to 100), Blackgrass","blackgrass; Preemergence, 250 g ai/ha",95
same,"Plant response rating, Corn",corn [2]; [9],0
same,"Plant response rating, Corn",corn [2]; [10],0
same,"Plant response rating, Corn",corn [2]; [11],55
same,"Plant response rating, Corn",corn [2]; [12],0
same,Corn plant response rating,corn [2]; [13],25
same,Corn plant response rating,corn [2]; [14],70
same,"Plant response rating, Corn",corn [2]; [15],75
same,"Plant response rating (scale of 0 to 100), Corn","corn [2]; Preemergence, 250 g ai/ha",85
same,"Plant response rating, Lambsquarters",lambsquarters; [9],0
same,"Plant response rating, Lambsquarters",lambsquarters; [10],55
same,"Plant response rating, Lambsquarters",lambsquarters; [11],70
same,"Plant response rating, Lambsquarters",lambsquarters; [12],65
same,Lambsquarters plant response rating,lambsquarters; [13],50
same,Lambsquarters plant response rating,lambsquarters; [14],70
same,"Plant response rating, Lambsquarters",lambsquarters; [15],80
same,"Plant response rating (scale of 0 to 100), Lambsquarters","lambsquarters; Preemergence, 250 g ai/ha",85
same,"Plant response rating, Morningglory",morningglory; [9],10
same,"Plant response rating, Morningglory",morningglory; [10],5
same,"Plant response rating, Morningglory",morningglory; [11],10
same,"Plant response rating, Morningglory",morningglory; [12],15
same,Morningglory plant response rating,morningglory; [13],0
same,Morningglory plant response rating,morningglory; [14],0
same,"Plant response rating, Morningglory",morningglory; [15],35
same,"Plant response rating (scale of 0 to 100), Morningglory","morningglory; Preemergence, 250 g ai/ha",55
same,"Plant response rating, Nutsedge, Yellow","nutsedge, yellow; [9]",0
same,"Plant response rating, Nutsedge, Yellow","nutsedge, yellow; [10]",0
same,"Plant response rating, Nutsedge, Yellow","nutsedge, yellow; [11]",0
same,"Plant response rating, Nutsedge, Yellow","nutsedge, yellow; [12]",0
same,"Nutsedge, Yellow plant response rating","nutsedge, yellow; [13]",0
same,"Nutsedge, Yellow plant response rating","nutsedge, yellow; [14]",0
same,"Plant response rating, Nutsedge, Yellow","nutsedge, yellow; [15]",0
same,"Plant response rating (scale of 0 to 100), Nutsedge, Yellow","nutsedge, yellow; Preemergence, 250 g ai/ha",35
same,"Plant response rating, Soybean",soybean; [9],0
same,"Plant response rating, Soybean",soybean; [10],5
same,"Plant response rating, Soybean",soybean; [11],0
same,"Plant response rating, Soybean",soybean; [12],0
same,Soybean plant response rating,soybean; [14],0
same,"Plant response rating, Soybean",soybean; [15],0
same,"Plant response rating, Oilseed Rape",oilseed rape; [9],0
same,"Plant response rating, Oilseed Rape",oilseed rape; [10],0
same,"Plant response rating, Oilseed Rape",oilseed rape; [11],0
same,"Plant response rating, Oilseed Rape",oilseed rape; [12],0
same,Oilseed Rape plant response rating,oilseed rape; [13],0
same,Oilseed Rape plant response rating,oilseed rape; [14],70
same,"Plant response rating, Oilseed Rape",oilseed rape; [15],85
same,"Plant response rating (scale of 0 to 100), Oilseed Rape","oilseed rape; Preemergence, 250 g ai/ha",90
O=C1NCC(c2cccc(C(F)(F)F)c2)C1C(=O)Nc1cccc(Cl)c1F (stereo not shown) [Compound 316],"Plant response rating, Barnyardgrass",barnyardgrass; [3],80
same,"Plant response rating, Barnyardgrass",barnyardgrass; [4],90
same,"Plant response rating, Barnyardgrass",barnyardgrass; [5],80
same,Barnyardgrass plant response rating,barnyardgrass; [6],90
same,"Plant response rating, Pigweed",pigweed; [3],0
same,"Plant response rating, Pigweed",pigweed; [4],20
same,"Plant response rating, Pigweed",pigweed; [5],20
same,Pigweed plant response rating,pigweed; [6],20
same,"Plant response rating, Corn",corn [1]; [7],60
same,"Plant response rating, Corn",corn [1]; [8],80
same,"Plant response rating, Ducksalad",ducksalad,100
same,"Plant response rating, Blackgrass",blackgrass; [9],0
same,"Plant response rating, Blackgrass",blackgrass; [10],0
same,"Plant response rating, Blackgrass",blackgrass; [11],0
same,"Plant response rating, Blackgrass",blackgrass; [12],0
same,Blackgrass plant response rating,blackgrass; [13],0
same,Blackgrass plant response rating,blackgrass; [14],0
same,"Plant response rating, Blackgrass",blackgrass; [15],30
same,"Plant response rating (scale of 0 to 100), Blackgrass","blackgrass; Preemergence, 250 g ai/ha",60
same,"Plant response rating, Corn",corn [2]; [9],0
same,"Plant response rating, Corn",corn [2]; [10],0
same,"Plant response rating, Corn",corn [2]; [11],0
same,"Plant response rating, Corn",corn [2]; [12],0
same,Corn plant response rating,corn [2]; [13],15
same,Corn plant response rating,corn [2]; [14],75
same,"Plant response rating, Corn",corn [2]; [15],65
same,"Plant response rating (scale of 0 to 100), Corn","corn [2]; Preemergence, 250 g ai/ha",75
same,"Plant response rating, Lambsquarters",lambsquarters; [9],55
same,"Plant response rating, Lambsquarters",lambsquarters; [10],65
same,"Plant response rating, Lambsquarters",lambsquarters; [11],40
same,"Plant response rating, Lambsquarters",lambsquarters; [12],65
same,Lambsquarters plant response rating,lambsquarters; [13],0
same,Lambsquarters plant response rating,lambsquarters; [14],20
same,"Plant response rating, Lambsquarters",lambsquarters; [15],65
same,"Plant response rating (scale of 0 to 100), Lambsquarters","lambsquarters; Preemergence, 250 g ai/ha",65
same,"Plant response rating, Morningglory",morningglory; [9],55
same,"Plant response rating, Morningglory",morningglory; [10],0
same,"Plant response rating, Morningglory",morningglory; [11],10
same,"Plant response rating, Morningglory",morningglory; [12],10
same,Morningglory plant response rating,morningglory; [13],0
same,Morningglory plant response rating,morningglory; [14],0
same,"Plant response rating, Morningglory",morningglory; [15],25
same,"Plant response rating (scale of 0 to 100), Morningglory","morningglory; Preemergence, 250 g ai/ha",35
same,"Plant response rating, Nutsedge, Yellow","nutsedge, yellow; [9]",0
same,"Plant response rating, Nutsedge, Yellow","nutsedge, yellow; [10]",0
same,"Plant response rating, Nutsedge, Yellow","nutsedge, yellow; [11]",0
same,"Plant response rating, Nutsedge, Yellow","nutsedge, yellow; [12]",0
same,"Nutsedge, Yellow plant response rating","nutsedge, yellow; [13]",0
same,"Nutsedge, Yellow plant response rating","nutsedge, yellow; [14]",0
same,"Plant response rating, Nutsedge, Yellow","nutsedge, yellow; [15]",0
same,"Plant response rating (scale of 0 to 100), Nutsedge, Yellow","nutsedge, yellow; Preemergence, 250 g ai/ha",70
same,"Plant response rating, Soybean",soybean; [9],0
same,"Plant response rating, Soybean",soybean; [10],0
same,"Plant response rating, Soybean",soybean; [11],0
same,"Plant response rating, Soybean",soybean; [12],0
same,Soybean plant response rating,soybean; [14],0
same,"Plant response rating, Soybean",soybean; [15],0
same,"Plant response rating, Oilseed Rape",oilseed rape; [9],0
same,"Plant response rating, Oilseed Rape",oilseed rape; [10],0
same,"Plant response rating, Oilseed Rape",oilseed rape; [11],0
same,"Plant response rating, Oilseed Rape",oilseed rape; [12],0
same,Oilseed Rape plant response rating,oilseed rape; [13],0
same,Oilseed Rape plant response rating,oilseed rape; [14],0
same,"Plant response rating, Oilseed Rape",oilseed rape; [15],20
same,"Plant response rating (scale of 0 to 100), Oilseed Rape","oilseed rape; Preemergence, 250 g ai/ha",60
